From US20250051301A1, “MUTANT IDH1 AND IDH2 INHIBITOR AND APPLICATION THEREOF” (Betta Pharmaceuticals Co., Ltd, priority 2022, published 2025)

Key:
IDH2^R140Q = target: T1, IDH2^R140Q (Homo sapiens, UniProt P48735, R140Q); assay: Enzyme activity inhibition assay (fluorescence-based), IDH2 R140Q; format: biochemical; details: numeric values
T1 sequence (P48735 40-452 R140Q): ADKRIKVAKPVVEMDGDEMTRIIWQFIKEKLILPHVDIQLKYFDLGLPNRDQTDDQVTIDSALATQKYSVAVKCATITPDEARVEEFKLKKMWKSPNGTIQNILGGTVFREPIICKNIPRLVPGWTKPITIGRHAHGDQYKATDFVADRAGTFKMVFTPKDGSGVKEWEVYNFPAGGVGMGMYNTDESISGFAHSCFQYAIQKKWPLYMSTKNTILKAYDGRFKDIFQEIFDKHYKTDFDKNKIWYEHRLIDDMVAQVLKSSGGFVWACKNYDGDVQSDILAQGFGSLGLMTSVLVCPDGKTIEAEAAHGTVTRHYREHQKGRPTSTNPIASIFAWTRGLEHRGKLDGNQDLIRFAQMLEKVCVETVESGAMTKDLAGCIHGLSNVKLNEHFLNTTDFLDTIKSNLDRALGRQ
Description: The inhibitory ability of the compounds on the enzyme activities of IDH1^R132H and IDH2^R140Qwas detected and expressed as the half inhibitory concentration (IC50) value. AG-881 was used as a positive control compound. In this experiment, compounds were screened on enzymes IDH1^R132H and IDH2^R140Q using a fluorescence-based method (initial concentration: 10000 nM, 3-fold dilution, 10 concentrations, and single-well detection). • (1) Preparation of 1×assay buffer. • (2) Preparation of compound concentration gradient: the compounds to be tested were assayed at an initial concentration of 10000 nM, with 3-fold dilution and 10 concentrations, and diluted into 200-fold the final concentration in 100% DMSO solution in a 384-well plate. • (3) 250 nL of DMSO and 250 nL of diluted compounds were transferred to a reaction plate with Echo 550. • (4) IDH2^R140Q enzyme detection: 25 μL of an IDH2^R140Q enzyme solution was added, and the mixture was incubated for 60 minutes; then 25 μL of a substrate solution was added, and the mixture was incubated for 150 minutes; then 25 μL of a detection buffer was added, and the mixture was shaken for 1 minute and incubated for 60 minutes; and finally, Synergy 2, Ex544/Em590 cutoff 590 was used for reading. • (5) IDH1^R132H enzyme detection: 40 μL of a mixture solution of an IDH1^R132H enzyme at the 1.25-fold final concentration and NADPH was added, and the mixture was incubated for 60 minutes; then 10 μL of a substrate solution at the 5-fold final concentration was added, and the mixture was incubated for 90 minutes; then 25 μL of a detection buffer at the 3-fold final concentration was added, and the mixture was shaken for 1 minute. and finally, Synergy 2, Ex544/Em590 cutoff 590 was used for reading. • (8) Inhibition rate calculation, formula: % Inhibition=(RFU_sample−RFU_min)/(RFU_max−RFU_min)*100%, wherein RFU-sample represents the fluorescence intensity of a sample; RFU-min represents the average value of negative control wells and represents the fluorescence intensity with an enzyme; and RFU-max represents the average value of positive control wells and represents the fluorescence intensity without an enzyme. The curve fitting was performed using Graphpad Prism software to obtain IC50 values, and the test results were as shown in table 2.

[1] = Pharmacokinetic detection in dogs; format: in vivo; details: beagle dogs
Description: Adult beagle dogs (6-12 months of age) received a single dose of the compounds to be tested via intravenous administration (IV) or oral gavage administration (PO), respectively. In the IV single dose, 5% DMSO+5% Solutol+90% physiological saline was used as the excipient; the intravenous administration was carried out at a dose of 1 mg/kg (2 females and 2 males); and the venous blood collection time was 5 min, 15 min, 0.5 h, 1 h, 2 h, 4 h, 6 h, 8 h, 10 h and 24 h. In the PO single dose, 5% DMSO+5% Solutol+90% purified water was used as the excipient; the oral gavage administration was carried out at a dose of 5 mg/kg (2 females and 2 males); and the blood collection time was 15 min, 0.5 h, 1 h, 2 h, 4 h, 6 h, 8 h, 10 h and 24 h. Blood samples were collected in tubes containing EDTA anticoagulants and centrifuged at 4000 rpm at 4° C. for 10 min, and the supernatants were transferred to centrifuge tubes and stored at −20° C. For the detection, 30 μL of the plasma supernatant sample was taken, and 200 μL of an internal standard solution was added. The mixture was centrifuged at 3000 rpm for 10 minutes. Then, 100 μL of the supernatant solution was diluted with water at a 1:1 ratio and then injected with an injection volume of 5 μL. The concentration of the compounds to be tested in the plasma sample was analyzed by liquid chromatography-tandem mass spectrometry (LC-MS/MS). Plasma concentration-time data for individual animals were analyzed using Sciex Analyst software. The non-compartment model was introduced into the concentration analysis, and pharmacokinetic parameters (Cl_obs, Cmax and AUClast) of the compounds to be tested were calculated using WinNonlin (version 4.1; pHarsight) software.

[2] = both sexes, dog, plasma, PO, 5 mg/kg

IC50 (IDH2^R140Q): 190 nM
Cl_obs ([1]; IV, 1 mg/kg): 5.1 mL/min/kg
AUC(0-t) ([1]; both sexes, dog, plasma, IV, 1 mg/kg): 2630 ng·h/mL
AUC(0-t) [1, 2]: 11700 ng·h/mL
Cmax [1, 2]: 1160 ng/mL
SMILES: C[C@@H](Nc1nc(N[C@H](C)C(F)(F)F)nc(-c2cc(F)c(N)c(Cl)n2)n1)C(F)(F)F [Example 5, 6-(5-amino-6-chloro-4-fluoropyridin-2-yl)-N^2,N^4-bis((R)-1,1,1-trifluoropropyl-2-yl)-1,3,5-triazine-2,4-diamine]
